This passage reports EC50 results from patent US10414811B2, “Protease-resistant lipidated GLP-1 analogs” (MEDIMMUNE LIMITED, priority 2015, dated 2019).

Each structure is given as a SMILES string. Like-named read-outs stand apart in the source and are kept apart here. Numbered stars: 1 amine (or outer) side, 2 acyl side, 3 side chain; on linkers, the order of the positions; unused ones are H or OH. Square brackets hold non-standard residues; d marks the D form. Side chains are listed from the residue outwards. Peptide text beside a SMILES is read from it. * marks the point of attachment. γGlu = O=C(O)[C@H](CCC(=O)[*:2])N[*:1]; αMeF = C[C@](N)(Cc1ccccc1)C(=O)O; αMeK = C[C@](N)(CCCCN)C(=O)O; Lauroyl = CCCCCCCCCCCC(=O)*; αMeS = C[C@](N)(CO)C(=O)O; AEEA = NCCOCCOCC(=O)O; Aib = CC(C)(N)C(=O)O A value given as a limit tells only on which side of the number the result lay.

Common to all, as to format: cell-based
For test [1], the target named is T1, human glucagon receptor (GCGR) (Homo sapiens, UniProt P47871).
T1 construct: expressed in transfected cells
Briefly: cAMP assay, human GCGR cells. The method, then: (§1) Sample dilutions are made in duplicate.
(§2) A frozen cryo-vial of cells expressing the receptor of interest is thawed rapidly in a water-bath, transferred to pre-warmed assay buffer and spun at 240×g for 5 minutes. Cells are re-suspended in assay buffer at a batch-dependent optimized concentration (e.g. hGCGR cells at 2×10^5 cells/ml, hGLP-1R and hGIPR cells at 1×10^5 cells/ml).
(§3) To this, 5 μL cell suspension is added and the plates incubated at room temperature for 30 minutes.
(§4) cAMP levels are measured using a commercially available cAMP dynamic 2 HTRF kit (Cisbio, Cat #62AM4PEJ), following the two step protocol as per manufacturer's recommendations. In brief; anti-cAMP cryptate (donor fluorophore) and cAMP-d2 (acceptor fluorophore) are made up separately by diluting each 1/20 in conjugate & lysis buffer provided in the kit. 5 μL anti-cAMP cryptate is added to wells of the assay plate, and 5 μL cAMP-d2 is added to wells except non-specific binding (NSB) wells, to which conjugate and lysis buffer are added. […] EC50 values of the synthetic peptides determined in cAMP assays are then determined.
(§5) Data is transformed to % Delta F as described in the manufacturer's guidelines and analyzed by 4-parameter logistic fit to determine EC50 values. […] To compare the balance of activities at the GLP-1R and GCGR between different peptides and across different conditions, these can be correlated, where the EC50's are related to those of comparator peptides.

Test [2] concerns the target T2, human glucose-dependent insulinotropic peptide receptor (GIPR) (Homo sapiens, UniProt P48546).
T2 construct: expressed in transfected cells
T2 sequence (P48546 22-466): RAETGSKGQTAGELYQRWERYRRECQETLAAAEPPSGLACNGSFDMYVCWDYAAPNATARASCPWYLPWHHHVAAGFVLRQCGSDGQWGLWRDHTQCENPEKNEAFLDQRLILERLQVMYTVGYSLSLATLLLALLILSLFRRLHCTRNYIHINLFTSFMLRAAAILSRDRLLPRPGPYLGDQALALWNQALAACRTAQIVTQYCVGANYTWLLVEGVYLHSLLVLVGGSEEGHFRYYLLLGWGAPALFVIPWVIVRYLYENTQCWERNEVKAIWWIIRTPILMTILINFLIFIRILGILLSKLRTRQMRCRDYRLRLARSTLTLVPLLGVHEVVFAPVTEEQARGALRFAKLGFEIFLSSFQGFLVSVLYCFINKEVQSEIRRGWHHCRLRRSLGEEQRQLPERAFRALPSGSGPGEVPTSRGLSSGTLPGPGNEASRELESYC
As to the kind of experiment: cAMP assay, human GIPR cells. The method, then: as §1, §2, §3, §4, §5

In test [3] the target is T3, human GLP-1 receptor (GLP-1R) (Homo sapiens, UniProt P43220).
T3 construct: expressed in transfected cells
Briefly: cAMP assay, human GLP-1R cells. The conditions noted are these: bis-lipidated peptides. The method, then:
as §1, §2, §3, §4, §5
For orientation: Changes in cAMP serve as a functional read-out for many G protein-coupled receptors.

[4] abbreviates: cAMP assay, first determination (n1), read-out: Primary assay EC50 Gluc-R (n1).
Where [5] appears, read: cAMP assay, second determination (n2), read-out: Primary assay EC50 Gluc-R (n2).
[6] abbreviates: cAMP assay, first determination (n1), read-out: Primary assay EC50 GIP-R (n1).
[7] abbreviates: cAMP assay, second determination (n2), read-out: Primary assay EC50 GIP-R (n2).
Setting [8] is: mean of n1 and n2, read-out: Primary assay EC50 Mean pM GLP-1R.
Setting [9] is: replicate n1, read-out: Primary assay EC50 GLP-1R n1.
The mark [10] stands for this setting: replicate n2, read-out: Primary assay EC50 GLP-1R n2.

T1 sequence (P47871 26-477): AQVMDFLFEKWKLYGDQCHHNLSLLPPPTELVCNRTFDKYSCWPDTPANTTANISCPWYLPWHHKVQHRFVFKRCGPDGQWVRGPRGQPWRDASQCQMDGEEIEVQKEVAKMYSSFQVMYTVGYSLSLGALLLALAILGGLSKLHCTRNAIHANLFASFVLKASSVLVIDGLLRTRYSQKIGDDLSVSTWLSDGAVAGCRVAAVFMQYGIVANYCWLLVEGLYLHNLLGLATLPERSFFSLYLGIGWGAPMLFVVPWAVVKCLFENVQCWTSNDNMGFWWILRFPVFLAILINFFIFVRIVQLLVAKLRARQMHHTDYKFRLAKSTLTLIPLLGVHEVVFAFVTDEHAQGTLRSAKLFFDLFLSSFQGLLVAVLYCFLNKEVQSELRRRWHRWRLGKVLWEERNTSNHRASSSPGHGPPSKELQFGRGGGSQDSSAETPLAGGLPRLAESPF
T3 sequence (P43220 24-463): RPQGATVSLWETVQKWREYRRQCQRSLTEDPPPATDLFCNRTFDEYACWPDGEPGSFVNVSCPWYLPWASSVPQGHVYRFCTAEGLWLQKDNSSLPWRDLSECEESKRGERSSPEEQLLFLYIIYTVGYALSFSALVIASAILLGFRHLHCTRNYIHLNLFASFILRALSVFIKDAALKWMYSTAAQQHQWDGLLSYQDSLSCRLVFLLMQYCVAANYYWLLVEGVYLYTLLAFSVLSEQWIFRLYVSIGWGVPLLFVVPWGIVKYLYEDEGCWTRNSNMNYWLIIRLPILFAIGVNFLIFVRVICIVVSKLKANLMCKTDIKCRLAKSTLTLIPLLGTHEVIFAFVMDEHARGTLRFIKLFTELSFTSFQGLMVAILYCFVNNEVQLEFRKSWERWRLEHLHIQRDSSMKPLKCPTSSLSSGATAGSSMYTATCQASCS

By EC50 is commonly meant the concentration that produces a half-maximal response. Regarding `CC[C@H](C)[C@H](NC(=O)[C@](C)(Cc1ccccc1)NC(=O)[C@H](CCC(=O)O)NC(=O)[C@](C)(CCCCN)NC(=O)[C@H](C)NC(=O)[C@H](C)NC(=O)[C@H](CCC(=O)O)NC(=O)CNC(=O)[C@H](CCC(=O)O)NC(=O)[C@@H](NC(=O)[C@](C)(Cc1ccccc1)NC(=O)[C@H](CO)NC(=O)[C@H](CO)NC(=O)[C@@H](NC(=O)[C@H](CC(=O)O)NC(=O)[C@H](CO)NC(=O)[C@@H](NC(=O)[C@](C)(Cc1ccccc1)NC(=O)[C@H](CO)NC(=O)CNC(=O)[C@H](CCC(=O)O)NC(=O)C(C)(C)NC(=O)[C@@H](N)Cc1c[nH]cn1)[C@@H](C)O)C(C)C)C(C)C)C(=O)N[C@@H](C)C(=O)N[C@@](C)(Cc1ccccc1)C(=O)N[C@H](C(=O)N[C@H](C(=O)N[C@@](C)(CCCCN)C(=O)NCC(=O)NCC(N)=O)C(C)C)C(C)C` [compound 10] (H-H[Aib]EGS[αMeF]TSDVSS[αMeF]VEGEAA[αMeK]E[αMeF]IA[αMeF]VV[αMeK]GG-NH2; N-terminus assumed), the concentration for a half-maximal effect (EC50) in test [1] (setting [4]), in test [1] (setting [5]), in test [2] (setting [6]) and in test [2] (setting [7]) was no less than 100 nM in each case.
As for `CC[C@H](C)[C@H](NC(=O)[C@H](Cc1ccccc1)NC(=O)[C@H](CCC(=O)O)NC(=O)[C@H](CCCCN)NC(=O)[C@H](C)NC(=O)[C@H](C)NC(=O)[C@H](CCC(N)=O)NC(=O)CNC(=O)[C@H](CCC(=O)O)NC(=O)[C@H](CC(C)C)NC(=O)[C@H](Cc1ccc(O)cc1)NC(=O)[C@H](CO)NC(=O)[C@H](CO)NC(=O)[C@@H](NC(=O)[C@H](CC(=O)O)NC(=O)[C@](C)(CO)NC(=O)[C@@H](NC(=O)[C@H](Cc1ccccc1)NC(=O)[C@@H](NC(=O)CNC(=O)[C@H](CCC(=O)O)NC(=O)C(C)(C)NC(=O)[C@@H](N)Cc1c[nH]cn1)[C@@H](C)O)[C@@H](C)O)C(C)C)C(=O)N[C@@H](C)C(=O)N[C@@H](Cc1c[nH]c2ccccc12)C(=O)N[C@@H](CC(C)C)C(=O)N[C@H](C(=O)N[C@@H](CCCCN)C(=O)NCC(=O)N[C@@H](CCCNC(=N)N)C(N)=O)C(C)C` [compound 19], the EC50 in test [1] (setting [4]), in test [1] (setting [5]), in test [2] (setting [6]) and in test [2] (setting [7]) was no less than 130 nM each time.
With `CC[C@H](C)[C@H](NC(=O)[C@](C)(Cc1ccccc1)NC(=O)[C@H](CCC(=O)O)NC(=O)[C@](C)(CCCCN)NC(=O)[C@H](C)NC(=O)[C@H](C)NC(=O)[C@H](CCC(=O)O)NC(=O)CNC(=O)[C@H](CCC(=O)O)NC(=O)[C@H](CC(C)C)NC(=O)[C@](C)(Cc1ccccc1)NC(=O)[C@H](CO)NC(=O)[C@](C)(CO)NC(=O)[C@@H](NC(=O)[C@H](CC(=O)O)NC(=O)[C@H](CCC(=O)O)NC(=O)[C@@H](NC(=O)[C@](C)(Cc1ccccc1)NC(=O)[C@H](CO)NC(=O)CNC(=O)[C@H](CCC(=O)O)NC(=O)C(C)(C)NC(=O)[C@@H](N)Cc1c[nH]cn1)[C@@H](C)O)C(C)C)C(=O)N[C@@H](C)C(=O)N[C@@](C)(Cc1ccccc1)C(=O)N[C@H](C(=O)N[C@H](C(=O)N[C@@](C)(CCCCN)C(=O)NCC(=O)NCC(N)=O)C(C)C)C(C)C` [compound 28] (H-H[Aib]EGS[αMeF]TEDV[αMeS]S[αMeF]LEGEAA[αMeK]E[αMeF]IA[αMeF]VV[αMeK]GG-NH2), the EC50 in test [1] (setting [4]), in test [1] (setting [5]), in test [2] (setting [6]) and in test [2] (setting [7]) was no less than 100 nM throughout.
Turning to `CCCCCCCCCCCC(=O)N[C@@H](CCC(=O)NCCOCCOCC(=O)NCCOCCOCC(=O)NCCCC[C@H](NC(=O)CNC(=O)[C@H](CCC(=O)O)NC(=O)[C@H](CC(C)C)NC(=O)[C@H](Cc1ccc(O)cc1)NC(=O)[C@H](CO)NC(=O)[C@H](CO)NC(=O)[C@H](CCCCNC(=O)COCCOCCNC(=O)COCCOCCNC(=O)CC[C@H](NC(=O)CCCCCCCCCCC)C(=O)O)NC(=O)[C@H](CC(=O)O)NC(=O)[C@H](CO)NC(=O)[C@@H](NC(=O)[C@](C)(Cc1ccccc1)NC(=O)[C@H](CO)NC(=O)CNC(=O)[C@H](CCC(=O)O)NC(=O)C(C)(C)NC(=O)[C@@H](N)Cc1c[nH]cn1)[C@@H](C)O)C(=O)N[C@@H](C)C(=O)N[C@@H](C)C(=O)N[C@@](C)(CCCCN)C(=O)N[C@@H](CCC(=O)O)C(=O)N[C@@H](Cc1ccccc1)C(=O)N[C@H](C(=O)N[C@@H](C)C(=O)N[C@@H](Cc1ccccc1)C(=O)N[C@@H](CCCCNC(=O)COCCOCCNC(=O)COCCOCCNC(=O)CC[C@H](NC(=O)CCCCCCCCCCC)C(=O)O)C(=O)N[C@H](C(=O)N[C@@H](CCC(=O)O)C(=O)NCC(=O)NCC(N)=O)C(C)C)[C@@H](C)CC)C(=O)O` [compound 472] (H-H[Aib]EGS[αMeF]TSDK([AEEA-AEEA-γGlu-Lauroyl])SSYLEGK([AEEA-AEEA-γGlu-Lauroyl])AA[αMeK]EFIAFK([AEEA-AEEA-γGlu-Lauroyl])VEGG-NH2; N-terminus assumed), the EC50 in test [1] (tris-lipidated peptides, first replicate, read-out: Primary assay EC50 Gluc-R (n1)) came to 19.9 nM; in test [2] (tris-lipidated peptides, first replicate, read-out: Primary assay EC50 GIP-R (n1)) it was 19.9 nM.
`CCCCCCCCCCCC(=O)N[C@@H](CCC(=O)NCCOCCOCC(=O)NCCOCCOCC(=O)NCCCC[C@H](NC(=O)[C@H](CC(=O)O)NC(=O)[C@H](CO)NC(=O)[C@@H](NC(=O)[C@](C)(Cc1ccccc1)NC(=O)[C@H](CO)NC(=O)CNC(=O)[C@H](CCC(=O)O)NC(=O)C(C)(C)NC(=O)[C@@H](N)Cc1c[nH]cn1)[C@@H](C)O)C(=O)N[C@@H](CO)C(=O)N[C@@H](CO)C(=O)N[C@@H](Cc1ccc(O)cc1)C(=O)N[C@@H](CC(C)C)C(=O)N[C@@H](CCC(=O)O)C(=O)NCC(=O)N[C@@H](CCC(=O)O)C(=O)N[C@@H](C)C(=O)N[C@@H](C)C(=O)N[C@@](C)(CCCCN)C(=O)N[C@@H](CCC(=O)O)C(=O)N[C@@H](Cc1ccccc1)C(=O)N[C@H](C(=O)N[C@@H](CCCCNC(=O)COCCOCCNC(=O)COCCOCCNC(=O)CC[C@H](NC(=O)CCCCCCCCCCC)C(=O)O)C(=O)N[C@@H](Cc1c[nH]c2ccccc12)C(=O)N[C@H](C(=O)N[C@H](C(=O)N[C@@H](CCC(=O)O)C(=O)NCC(=O)NCC(N)=O)C(C)C)C(C)C)[C@@H](C)CC)C(=O)O` [compound 256] (H-H[Aib]EGS[αMeF]TSDK([AEEA-AEEA-γGlu-Lauroyl])SSYLEGEAA[αMeK]EFIK([AEEA-AEEA-γGlu-Lauroyl])WVVEGG-NH2): the EC50 stood at 7.5 pM in test [3] (setting [8]), 9.46 pM in test [3] (setting [9]) and 5.57 pM in test [3] (setting [10]).
`CCCCCCCCCCCC(=O)N[C@@H](CCC(=O)NCCOCCOCC(=O)NCCOCCOCC(=O)NCCCC[C@H](NC(=O)[C@H](CC(=O)O)NC(=O)[C@H](CO)NC(=O)[C@@H](NC(=O)[C@](C)(Cc1ccccc1)NC(=O)[C@H](CO)NC(=O)CNC(=O)[C@H](CCC(=O)O)NC(=O)C(C)(C)NC(=O)[C@@H](N)Cc1c[nH]cn1)[C@@H](C)O)C(=O)N[C@@H](CO)C(=O)N[C@@H](CO)C(=O)N[C@@H](Cc1ccc(O)cc1)C(=O)N[C@@H](CC(C)C)C(=O)N[C@@H](CCC(=O)O)C(=O)NCC(=O)N[C@@H](CCC(=O)O)C(=O)N[C@@H](C)C(=O)N[C@@H](C)C(=O)N[C@@](C)(CCCCN)C(=O)N[C@@H](CCC(=O)O)C(=O)N[C@@H](Cc1ccccc1)C(=O)N[C@H](C(=O)N[C@@H](C)C(=O)N[C@@H](Cc1c[nH]c2ccccc12)C(=O)N[C@@H](CCCCNC(=O)COCCOCCNC(=O)COCCOCCNC(=O)CC[C@H](NC(=O)CCCCCCCCCCC)C(=O)O)C(=O)N[C@H](C(=O)N[C@@H](CCC(=O)O)C(=O)NCC(=O)NCC(N)=O)C(C)C)[C@@H](C)CC)C(=O)O` [compound 258] (H-H[Aib]EGS[αMeF]TSDK([AEEA-AEEA-γGlu-Lauroyl])SSYLEGEAA[αMeK]EFIAWK([AEEA-AEEA-γGlu-Lauroyl])VEGG-NH2; N-terminus assumed): the EC50 amounted to 92.3 pM in test [3] (setting [8]), 59.6 pM in test [3] (setting [9]) and 125 pM in test [3] (setting [10]).
